Here are results for one compound from patent US20240000847A1, “METHODS” (bluebird bio, Inc., priority 2020, published 2024).

Where two headings read alike, the source gives them in different places.

The test system of experiment [1] is hematopoietic stem cells (LSK: lineage negative, Sca1+, ckit+). The conditions noted are these: mice, 8.3-25 mg/kg anti-CD117 and anti-CD47 antibodies, two doses of 50 mg/kg cyclophosphamide, vs vehicle or antibodies alone. As to the method: In another experiment, immunocompetent mice (C57Bl/6 or Balb/C) were dosed with 8.3-25 mg/kg of anti-CD117 and anti-CD47 antibodies with or without two doses of 50 mg/kg of cyclophosphamide approximately 48 hours apart. Five to seven days after antibody treatment, mouse bone marrow was analyzed by flow cytometry or plated in methocellulose medium to evaluate impacts on the hematopoietic stem cells. […] FIG. 3.

In the next experiment the test system is bone marrow macrophages. The settings on record: mice; for F4/80+ macrophage staining in bone marrow smears (pathology): Ctx dosed at 2×100 mg/kg, FIG. 2B, 100 mg/kg; for F4/80+ macrophage staining in bone marrow smears (pathology) / activation status of macrophages recruited to the bone marrow (FcγRI signal): compared to vehicle; for activation status of macrophages recruited to the bone marrow (FcγRI signal): FIG. 2A bottom panel. The protocol: Immunocompetent mice (C57Bl/6 or Balb/C) were dosed with vehicle of one of four different cyclophosphamide (Cytoxan) regimens including: one dose of 50 mg/kg, one dose of 100 mg/kg, two doses of 50 mg/kg approximately 48 hours apart, and two doses of 100 mg/kg approximately 48 hours apart. Three days following the final dose of the regimen, mouse bone marrow was evaluated for macrophage number and phenotype of. Flow cytometry was used to characterize bone marrow macrophages. Briefly, bone marrow was stained with murine macrophage markers including CD11b, F4/80, CD16 (FcγRIII; marker of activated macrophages), CD32 (FcγRII; inhibitory macrophage marker), CD68, and CD64 (FcγRI; marker of activated macrophages). In addition, bone marrow smears were prepared for pathology analysis and stained with F4/80 to quantify macrophages.

Turning to `O=P1(N(CCCl)CCCl)NCCCO1` (centres unmarked) [cyclophosphamide], the “depletion of stem cells (LSK) in the bone marrow” value in experiment [1] (5-7 days after antibody, FIG. 3 left) is reported as “enhanced the antibody-mediated depletion”. Moreover, in experiment [1] (methocellulose, FIG. 3 right), the “number of colony forming cells (CFUs) from bone marrow” value is listed as “reduced the number of colony forming cells”. The “increase of macrophage content in the bone marrow” value with bone marrow macrophages (1 or 2 doses of 50 or 100 mg/kg, three days after final dose, flow cytometry, FIG. 2A top panel) is reported as “up to 2.5 fold”. Moreover, the “F4/80+ macrophage staining in bone marrow smears (pathology)” value with bone marrow macrophages is reported as “increased macrophage staining”; in the experiment with bone marrow macrophages (listed as Cyclophosphamide) it was “increase”. The “macrophage recruitment in bone marrow compared to vehicle” value with bone marrow macrophages (FIG. 2A top panel) is given as “increased macrophage recruitment”. Also, the entries for the “activation status of macrophages recruited to the bone marrow (FcγRI signal)” value in the experiment on bone marrow macrophages and in the experiment with bone marrow macrophages (listed as Cyclophosphamide) were “increased macrophage activation” and “enhanced activation status”, respectively.
